Our source for the logP values is patent publication US20100081679A1, “DIAMINOPYRIMIDINES AS FUNGICIDES” (Bayer CropScience AG, priority 2007, published 2010).

Each structure is given as a SMILES string. Marks after values point to notes of the source that are not given here.

A short description of the first data set: logP determination via retention times, calibrated with unbranched alkan-2-ones. In kind it is physicochemical. To be noted: HPLC on reversed-phase C 18, method **: 43° C.; 0.1% aqueous phosphoric acid and acetonitrile; linear gradient 10% to 95% acetonitrile.
Consider `CN(CC1CC1)c1nc(Nc2ccccc2)ncc1Cl` [compound 963], for which the logP is 2.72**.

As to `CN(CC1CC1)c1nc(Nc2cccc(N3CCCC3=O)c2)ncc1Cl` [compound 964], the logP was 2.21**. Same read-out and setting: under `COCc1cccc(Nc2ncc(Cl)c(N(C)CC3CC3)n2)c1` [compound 965] stands 2.71**; under `CN(CC1CC1)c1nc(Nc2ccc(N3CCCC3=O)cc2)ncc1Cl` [compound 966], 2.09**. With `CSc1cccc(Nc2ncc(Cl)c(N(C)CC3CC3)n2)c1` [compound 968], the logP is 3.6**. Regarding `COC(=O)Nc1ccc(Nc2ncc(Cl)c(N(C)CC3CC3)n2)cc1` [compound 970], the logP is 1.99**.

Staying with this data set, now noted: HPLC on reversed-phase C18, method *: 40° C., 0.1% aqueous formic acid and acetonitrile, linear gradient 10% to 95% acetonitrile.
As for `CC(=O)CCc1cccc(Nc2ncc(C(F)(F)F)c(NC3CC3)n2)c1` [compound 959], the logP is recorded as 2.68*. The same measure, in the same setting: the figure for `CN(C)C(=O)c1cccc(Nc2ncc(Cl)c(NC3CC3)n2)c1` [compound 960] is 1.33*.

As to `CC(=O)CCc1cccc(Nc2ncc(Br)c(NC3CC3)n2)c1` [compound 967], the logP is 1.83*. In the case of `COC(=O)c1ccc(Nc2ncc(C(F)(F)F)c(NC3CC3)n2)cc1` [compound 971], the logP is recorded as 3.21*. Still for that read-out and setting: the figure for `CC(C)c1cccc(Nc2ncc(C(F)(F)F)c(NC3CC3)n2)c1` [compound 973] is 4.14*; for `N#CCc1cccc(Nc2ncc(C(F)(F)F)c(NC3CC3)n2)c1` [compound 976] it is 2.56*; for `CCOC(=O)Nc1ccc(Nc2ncc(Cl)c(NC3CC3)n2)cc1` [compound 977] it is 1.63*. Same read-out and setting: the figure for `CN(C=O)c1ccc(Nc2ncc(Cl)c(NC3CC3)n2)cc1` [compound 978] is 1.44*.

The same data set, now with this note: method **: HPLC, reversed-phase C 18, 43° C., mobile phase 0.1% aqueous phosphoric acid and acetonitrile, linear gradient from 10% to 95% acetonitrile.
Turning to `CC1CC1Nc1nc(Nc2ccccc2)ncc1Cl` (centres unmarked) [compound 1008], the logP is 2**. The same measure, in the same setting: under `Clc1cnc(Nc2ccccc2)nc1NC1CC1c1ccccc1` (centres unmarked) [compound 1014] stands 2.77**. The same measure, in the same setting: under `N#Cc1cc(Nc2ncc(Cl)c(NC3CC3)n2)cc(C(F)(F)F)c1` [compound 1017] stands 3.69**. Still for that read-out and setting: the figure for `CC(=O)NS(=O)(=O)c1ccc(Nc2ncc(Cl)c(NC3CC3)n2)cc1` [compound 1021] is 1.54**. With `Clc1cnc(Nc2cccc(CBr)c2)nc1NC1CC1` [compound 1023], the logP is recorded as 2.31**. The same measure, in the same setting: the figure for `C=CCOc1cccc(Nc2ncc(C(F)(F)F)c(NC3CC3)n2)c1` [compound 1024] is 3.54**. On the same count and under the same terms, under `COc1ccc(CN(c2nc(Nc3ccccc3)ncc2Cl)C2CC2)cc1` [compound 1025] stands 4.15**. On the same count and under the same terms, the figure for `COc1ccc(CN(c2nc(Nc3cccc(SC)c3)ncc2Cl)C2CC2)cc1` [compound 1026] is 4.78**; for `CC1(C)CC1Nc1nc(Nc2ccccc2)ncc1Cl` (centres unmarked) [compound 1027] it is 2.37**; for `COCc1cccc(Nc2ncc(Cl)c(NC3CC3(C)C)n2)c1` (centres unmarked) [compound 1028] it is 2.37**.

As for `CSc1cccc(Nc2ncc(Cl)c(NC3CC3(C)C)n2)c1` (centres unmarked) [compound 1029], the logP is 3.07**. Still for that read-out and setting: under `CN(C)C(=O)c1ccc(Nc2ncc(Cl)c(NC3CC3(C)C)n2)cc1` (centres unmarked) [compound 1030] stands 1.86**; under `CC1(C)CC1Nc1nc(Nc2cccc(N3CCOC3=O)c2)ncc1Cl` (centres unmarked) [compound 1035], 1.93**; under `COCCc1cccc(Nc2ncc(C(F)(F)F)c(NC3CC3)n2)c1` [compound 1039], 2.88**. On the same count and under the same terms, the figure for `Clc1cnc(Nc2cccc(CN3CCCC3)c2)nc1NC1CC1` [compound 1043] is 0.92**. Same read-out and setting: under `COCc1cccc(Nc2ncc(Cl)c(N(Cc3ccc(OC)cc3)C3CC3)n2)c1` [compound 1044] stands 4.07**; under `COc1ccc(CN(c2nc(Nc3cccc(N4CCCC4=O)c3)ncc2Cl)C2CC2)cc1` [compound 1045], 3.37**; under `Clc1cnc(Nc2cccc(Cn3ccnc3)c2)nc1NC1CC1` [compound 1046], 0.83**.

Staying with this data set, now noted: method *: HPLC, reversed-phase C 18, 40° C., mobile phase 0.1% aqueous formic acid and acetonitrile, linear gradient from 10% to 95% acetonitrile.
In the case of `CC(=O)Nc1cc(Nc2ncc(Cl)c(NC3CC3)n2)ccc1C` [compound 982], the logP was 1.34*. Same read-out and setting: under `CCCSc1cccc(Nc2ncc(Cl)c(N(C)C3CC3)n2)c1` [compound 983] stands 4.88*. On the same count and under the same terms, the figure for `CCN(CC)C(=O)c1ccc(Nc2ncc(Cl)c(NC3CC3)n2)cc1` [compound 984] is 1.84*. On the same count and under the same terms, under `CCSCc1cccc(Nc2ncc(Cl)c(NC3CC3)n2)c1` [compound 986] stands 2.55*. For `CCSC(C)c1cccc(Nc2ncc(C(F)(F)F)c(NC3CC3)n2)c1` (centres unmarked) [compound 987], the logP is on record as 4.19*. As for `CCSC(C)c1cccc(Nc2ncc(C(F)(F)F)c(NCC3CC3)n2)c1` (centres unmarked) [compound 988], the logP was 4.37*. Consider `CC(C)Oc1ccc(Nc2ncc(Cl)c(NC3CC3)n2)cc1` [compound 989], for which the logP is given as 1.97*.

For the compound `CCOC(=O)c1cc(Nc2ncc(Cl)c(NC3CC3)n2)ccc1Cl` [compound 990], the logP is given as 2.84*. Turning to `CCCCOc1cc(Nc2ncc(Cl)c(NC3CC3)n2)ccc1C` [compound 991], the logP was 3.13*. Consider `CC(C)Oc1ccc(Nc2ncc(Cl)c(NC3CC3)n2)cc1OC(C)C` [compound 992], for which the logP is 2.42*. Same read-out and setting: the figure for `COC(=O)c1cc(Nc2ncc(Cl)c(NC3CC3)n2)ccc1O` [compound 993] is 1.81*. The same measure, in the same setting: the figure for `Clc1cnc(Nc2ccc3ncsc3c2)nc1NC1CC1` [compound 995] is 1.66*; for `FC(F)(F)c1cc(Br)cc(Nc2ncc(Cl)c(NC3CC3)n2)c1` [compound 998] it is 4.6*. The same measure, in the same setting: under `Clc1cnc(Nc2ccc3c(c2)CCC3)nc1NC1CC1` [compound 1000] stands 2.11*; under `COC(=O)c1cc(Nc2ncc(Cl)c(NC3CC3)n2)cc(C(=O)OC)c1` [compound 1001], 2.46*; under `COC(=O)c1cc(Nc2ncc(Cl)c(NC3CC3)n2)ccc1OC` [compound 1004], 1.58*.

In the case of `COCc1cc(COC)cc(Nc2ncc(Cl)c(NC3CC3)n2)c1` [compound 1012], the logP was 1.76*.

For `Clc1cnc(Nc2ccc(Sc3ccccc3)cc2)nc1NC1CC1` [compound 1013], the logP was 3.69*. The same measure, in the same setting: the figure for `CC1(C)CC1Nc1nc(Nc2ccccc2)ncc1Cl` (centres unmarked) [compound 1027] is 2.37*;. The same measure, in the same setting: the figure for `COCc1cccc(Nc2ncc(Cl)c(NC3CC3(C)C)n2)c1` (centres unmarked) [compound 1028] is 2.36*;; for `CSc1cccc(Nc2ncc(Cl)c(NC3CC3(C)C)n2)c1` (centres unmarked) [compound 1029] it is 3.07*;; for `CN(C)C(=O)c1ccc(Nc2ncc(Cl)c(NC3CC3(C)C)n2)cc1` (centres unmarked) [compound 1030] it is 1.86*;.

As to `CCNC(=O)c1cccc(Nc2ncc(C(F)(F)F)c(NC3CC3)n2)c1` [compound 1031], the logP is 2.07*. Regarding `CCC(CC)c1ccc(Nc2ncc(C(F)(F)F)c(NC3CC3)n2)cc1` [compound 1032], the logP is given as 4.92*. Same read-out and setting: under `CCC(CC)c1ccc(Nc2ncc(Cl)c(NC3CC3)n2)cc1` [compound 1033] stands 3.41*. With `CCc1cccc(Nc2ncc(C(F)(F)F)c(NC3CC3)n2)c1` [compound 1034], the logP is listed as 3.67*. Consider `CC1(C)CC1Nc1nc(Nc2cccc(N3CCOC3=O)c2)ncc1Cl` (centres unmarked) [compound 1035], for which the logP was 1.93*;. On the same count and under the same terms, under `Clc1cnc(Nc2cccc(OCCN3CCOCC3)c2)nc1NC1CC1` [compound 1040] stands 0.84*; under `COCCOc1cccc(Nc2ncc(C(F)(F)F)c(NC3CC3)n2)c1` [compound 1041], 2.78*. Same read-out and setting: under `OCc1cc(Nc2ncc(Cl)c(NC3CC3)n2)ccc1F` [compound 1047] stands 1.25*.
